The text below walks through data of US11325980B2, “Combination therapy using a LIV1-ADC and a chemotherapeutic” (SEATTLE GENETICS, INC., priority 2016, dated 2022).

Usually TGI stands for the reduction of tumour growth relative to the control group.

The test has as its system MCF-7 cells. Description: In vivo tumor growth inhibition (TGI), MCF-7 cells implanted subcutaneously in NSG mice. The arrangement: species or system NOD Scid Gamma (NSG) mice. The note with it: for Expected combination TGI: expected additive; for Combinatorial benefit: observed minus expected combination TGI; for TGI: single agent; for ranking of combinatorial benefit in vivo: combined with SGN-LIV1A, doses of Table 2, nab-paclitaxel 10 mg/kg. The procedure:
NOD Scid Gamma (NSG) mice were obtained from Jackson Laboratory and implanted with 17-β-estradiol pellet (Innovative Research of America; Sarasota, Fla.) one day prior to cell implant. Five million MCF-7 cells were implanted subcutaneously with Matrigel (BD Biosciences; Franklin Lakes, N.J.) and tumor volume was determined by a digital caliper twice a week, using the formula: volume=½×length width^2.
Mice received treatments when the average tumor volume reached 100 mm^3. The treatment regimen for each agent was: doxorubicin, 1 mg/kg q4dx3 intravenous (IV); SGN-LIV1, 1 mg/kg q4dx4 intraperitoneal (IP); […]; carboplatin 10 mg/kg q7dx3 IP; cyclophosphamide, 40 mg/kg q7dx3 IV; gemcitabine 20 mg/kg q7dx2 IP; and paclitaxel 10 mg/kg q3dx5 IP. Combination groups received the first dose of SGN-LIV1A and combination drug on the same day. n=6 for each group. The effects of each drug and their combination on tumor growth were plotted in FIGS. 6-8.
To determine the combined benefit in vivo, tumor growth inhibition (TGI) was compared using the area under the curve between untreated, single agent groups, and combined groups on the date the untreated animals were euthanized (Table 2). […] Thus, the expected additive TGI for combination is […].

Where [1] appears, read: named drug 40 mg/kg combined with 1 mg/kg SGN-LIV1A.
The mark [2] stands for this setting: named drug 10 mg/kg combined with 1 mg/kg SGN-LIV1A.
Setting [3] is: named drug 1 mg/kg combined with 1 mg/kg SGN-LIV1A.
Setting [4] is: dose 1 mg/kg, AUC vs untreated on the date untreated animals were euthanized.
The mark [5] stands for this setting: named drug 20 mg/kg combined with 1 mg/kg SGN-LIV1A.

Take `O=P1(N(CCCl)CCCl)NCCCO1` (centres unmarked) [cyclophosphamide]: under setting [1], the “Observed combination TGI” value is 39% and the “Expected combination TGI” value turned out to be 45%. Moreover, the Combinatorial benefit (named drug 40 mg/kg with 1 mg/kg SGN-LIV1A) was −6%. The TGI (dose 40 mg/kg, AUC vs untreated) is reported as 10%.
Consider `N.N.O=C([O-])C1(C(=O)[O-])CCC1.[Pt+2]` [carboplatin], for which the “ranking of combinatorial benefit in vivo” value is “highest combinatorial benefit”. Under setting [2], the “Observed combination TGI” value came out at 60% and the “Expected combination TGI” value amounted to 52%. Also, where the note is “named drug 10 mg/kg with 1 mg/kg SGN-LIV1A”, the Combinatorial benefit was 8%. Besides, under “dose 10 mg/kg, AUC vs untreated”, the TGI came out at 21%.
Take `COc1cccc2c1C(=O)c1c(O)c3c(c(O)c1C2=O)C[C@@](O)(C(=O)CO)C[C@@H]3O[C@H]1C[C@H](N)[C@H](O)[C@H](C)O1` [doxorubicin]: the “ranking of combinatorial benefit in vivo” value is “highest combinatorial benefit”. Under setting [3], the “Observed combination TGI” value came out at 75% and the “Expected combination TGI” value was 55%. Also, the Combinatorial benefit (named drug 1 mg/kg with 1 mg/kg SGN-LIV1A) was 20%. In addition, the TGI under setting [4] came to 26%.
For the molecule `Nc1ccn([C@@H]2O[C@H](CO)[C@@H](O)C2(F)F)c(=O)n1` [gemcitabine], under setting [5], the “Observed combination TGI” value stood at 54% and the “Expected combination TGI” value was determined as 51%. The “combined effect in vivo” value (named drug 20 mg/kg when combined with SGN-LIV1A) is given as “nearly additive”. Also, under “named drug 20 mg/kg with 1 mg/kg SGN-LIV1A”, the Combinatorial benefit came to 3%. Moreover, the TGI (dose 20 mg/kg, AUC vs untreated) was determined as 20%.

B1: SGN-LIV1A: LIV-1-directed antibody-drug conjugate: humanized antibody hLIV22, valine-citrulline linker, monomethyl auristatin E; average of 4 MMAE per antibody (conjugate, chains of the INN, looked up)
VH: QVQLVQSGAEVKKPGASVKVSCKASGLTIEDYYMHWVRQAPGQGLEWMGWIDPENGDTEYGPKFQGRVTMTRDTSINTAYMELSRLRSDDTAVYYCAVHNAHYGTWFAYWGQGTLVTVSS
VL: DVVMTQSPLSLPVTLGQPASISCRSSQSLLHSSGNTYLEWYQQRPGQSPRPLIYKISTRFSGVPDRFSGSGSGTDFTLKISRVEAEDVGVYYCFQGSHVPYTFGGGTKVEIK
modifications: vedotin (vc-MMAE)
notes: LIV-1-directed antibody-drug conjugate: humanized antibody hLIV22, valine-citrulline linker, monomethyl auristatin E; average of 4 MMAE per antibody
As for B1, under setting [4], the tumour growth inhibition (TGI) is 39%.
